Values of other authors in patent US20110110858A1, “Gold nanoparticle imaging agents and uses thereof” (priority 2009, published 2011).

Settings: 25° C.

## NCCCC[C@H](N[C@@H](CCc1ccccc1)C(=O)O)C(=O)N1CCC[C@H]1C(=O)O [lisinopril]
  pKa of the central CO2H: 2.5
  pKa of the lysyl amino group: 10.1
  pKa of the prolyl CO2H: 4.0
  pKa of the secondary amine group: 6.7
